The record followed here is US9949991B2, “Methods of treating aquaporin-mediated conditions” (Aeromics, Inc., priority 2013, dated 2018).

The nature of series [1]: Bioconversion in mouse plasma in vitro. The format is in vitro ADME.
The subject of series [2] is mouse water toxicity model (cerebral edema). The experiment in a line: Mouse water toxicity model, brain volume by MRI.
Procedure: The first time point at 5.67 min coincides with the scan slice at the middle of the brain during the first post-injection scan. Other time points are placed in a similar manner. The data is fitted to a single exponential equation: V/V0=Vi+dVmax(1−e^(−kt)); • where V/V0=relative brain volume, Vi=initial relative brain volume, dVmax=maximum change in relative brain volume, k=first order rate constant (min^−1), and t=time in minutes.
Mouse Water Toxicity Model—Brain Volume by Magnetic Resonance Imaging (MRI): MRI is used to measure changes in brain volume in response to water shock, using the water toxicity model. As described for the survival and brain water content studies above, mice are injected, IP, with a water bolus alone or water bolus and test compound at 0.76 mg/kg, and changes in brain volume as detected by MRI are monitored. […] High resolution T2-weighted sagittal scans (resolution=0.1 mm×0.1 mm×0.7 mm) of the mouse head are obtained prior to water injection, 5.67 min post water injection, and then every 5.2 minutes until the animal expires from the water loading. […] The cross sectional area of the brain in each imaging slice is measured by manual region-of-interest selection using ImageJ. Brain volumes are then calculated for each scan by summing the individual cross sectional brain areas and multiplying by the slice thickness (0.7 mm).
A further series has as its system AQP4. The experiment in a line: Aquaporin-Mediated Cell Volume Change Assay, CHO cells expressing AQP4 (AQP4b). The series is classed as cell-based. The settings on record: 10 μM, stable CHO cell line, FIG. 2. How it is done: (§1) Structure activity relationships (SARs) are determined by assaying analogues of selected hits to guide chemistry for the preparation of new molecules to be tested for improved potency. For this iterative process we use a quantitative kinetic assay—the Aquaporin-Mediated Cell Volume Change Assa—in a 96-well multiplate reader. It detects changes in light scattering by a monolayer of CHO cells expressing the desired AQP as they shrink when exposed to hypertonic solution (300 mOsm→530 mOsm). FIG. 1 depicts the aquaporin-mediated cell volume change assay with AQP4 expressing cells (FIG. 1A) and AQP2 expressing cells (FIG. 1B). The cells expressing aquaporins shrink more rapidly than control cells, due to enhanced water flow, which shrinkage can be inhibited by a compound that inhibits the aquaporin.
(§2) In FIG. 1, aquaporin-expressing cells are shown in the presence of DMSO (triangles) or in the presence of the test compound (here, Compound 3) at 10 μM (squares), along with CHO-CD81 expressing control cells in the presence of DMSO (diamonds). Each curve represents an average of 16 wells in the 96-well plate.
(§3) In FIG. 1A, when the AQP4b cells treated with DMSO are exposed to hypertonic shock, the cells show rapid shrinking, giving a rise in light scattering (increasing relative change in absorbance, Abs/Abs0) followed by a decay as cells detach from the plate. […]

A further series has as its target T1, AQP2 (Homo sapiens, UniProt P41181).
T1 construct: expressed in transfected cells
T1 sequence (P41181 1-271): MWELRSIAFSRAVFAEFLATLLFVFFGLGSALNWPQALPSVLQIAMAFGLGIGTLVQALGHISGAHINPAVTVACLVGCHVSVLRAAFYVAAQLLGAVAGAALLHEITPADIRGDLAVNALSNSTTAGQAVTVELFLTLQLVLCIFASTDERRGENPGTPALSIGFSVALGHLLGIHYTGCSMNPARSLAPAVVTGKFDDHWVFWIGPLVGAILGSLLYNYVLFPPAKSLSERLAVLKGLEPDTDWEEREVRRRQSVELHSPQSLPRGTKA
The series is described as follows: Aquaporin-Mediated Cell Volume Change Assay, CHO cells expressing AQP2. The format is cell-based. The note with it: 10 μM, stable CHO cell line, FIG. 2. How it is done: as §1, §2, §3

The target in a further series is T2, AQP1 (Homo sapiens, UniProt P29972).
T2 construct: expressed in transfected cells
T2 sequence (P29972 1-269): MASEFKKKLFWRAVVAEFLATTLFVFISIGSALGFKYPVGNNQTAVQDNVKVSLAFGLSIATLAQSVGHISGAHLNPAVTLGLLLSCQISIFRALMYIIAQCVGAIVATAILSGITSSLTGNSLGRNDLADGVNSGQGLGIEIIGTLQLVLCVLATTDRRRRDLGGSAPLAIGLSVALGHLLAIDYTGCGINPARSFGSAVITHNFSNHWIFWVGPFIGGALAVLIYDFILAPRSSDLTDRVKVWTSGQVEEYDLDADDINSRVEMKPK
The series is described as follows: Aquaporin-Mediated Cell Volume Change Assay, CHO cells expressing AQP1 (specificity). The series is classed as cell-based. The settings on record: 10 μM, stable CHO cell line, FIG. 2. How it is done: as §1
(§4) The specificity of the compounds is tested against the most closely related of the 13 known aquaporins: AQP1, AQP2, AQP5 and both splice variants of AQP4 (A and B). A stable CHO cell line is created for each of the above aquaporins and the inhibition of water permeability using the Aquaporin-Mediated Cell Volume Change Assay with 10 μM Compound 3 is tested.

The next series concerns the target T3, AQP5 (Homo sapiens, UniProt P55064).
T3 construct: expressed in transfected cells
The experiment in a line: Aquaporin-Mediated Cell Volume Change Assay, CHO cells expressing AQP5 (specificity). The format is cell-based. The note with it: 10 μM, stable CHO cell line, FIG. 2. On the procedure:
as §1, §4

Another series has as its target purified AQP4b (Homo sapiens, UniProt P55087). The experiment in a line: Hummel-Dryer style binding assay with [3H]-Compound 4 and purified AQP4b. The note with it: for Kd: detergent buffer, 1 μM [3H]-Compound 4, read-out: relative affinity. How it is done:
To support the mechanism of action by which phenylbenzamides directly block AQP4, we perform in vitro binding studies using purified AQP4b and Compound 4 radiolabeled with ^3H. Using a Hummel-Dryer style assay, a gel filtration column is equilibratrated with buffer containing detergent, to maintain solubility of AQP4b, and 1 μM [^3H]-Compound 4. AQP4b is diluted to 250 μM in this column buffer and incubated at RT for 30 min. The sample is then applied to the column, fractions collected and the presence of [^3H]-Compound 4 detected by liquid scintillation counting. […] The rise in [^3H]-Compound 4 from a baseline value of 1 μM represents binding to each of these proteins.

Series [3] concerns mouse middle cerebral artery occlusion (MCAo) model. The series is described as follows: Mouse MCAo stroke model, survival. The series is classed as in vivo. The settings on record: 2 mg/kg i.p. loading dose plus 1 mg/ml at 8 μl/h pump, versus saline, P<0.05.
Procedure: To mimic this injury in mice, an intraluminal monofilament model of middle cerebral artery occlusion (MCAo) is used. Occlusion is achieved by inserting a surgical filament into the external carotid artery (ECA) and threading it forward into the internal carotid artery (ICA) until the tip blocks the origin of the MCA. […] This technique is used to study a temporary occlusion in which the MCA is blocked for one hour.
Survival—Mice are treated with Compound 5 using a 2 mg/kg i.p. loading dose and 1 mg/ml at 8 μl/h maintenance dose (delivered by an i.p. osmotic pump) of Compound 5, or given saline (controls; n=17) using an identical approach.
The test system is the same in series [4]. The experiment in a line: Mouse MCAo stroke model, cerebral edema by MRI and neurological outcome.
Procedure: To mimic this injury in mice, an intraluminal monofilament model of middle cerebral artery occlusion (MCAo) is used. Occlusion is achieved by inserting a surgical filament into the external carotid artery (ECA) and threading it forward into the internal carotid artery (ICA) until the tip blocks the origin of the MCA. […] This technique is used to study a temporary occlusion in which the MCA is blocked for one hour. The filament is then removed allowing reperfusion to occur for 24 hours before the animal's brain was imaged using T2-weighted scans in a 9.4 T Bruker MRI scanner at the Case Center for Imaging Research (FIG. 10).
Cerebral Edema—Mice are given saline or treated with Compound 5 by multi-dosing at 5 mg/kg i.p. every three hours (n=8 per treatment). […] Ipsilateral and contralateral hemispheric volume is measured from the T2-weighted MR images of mice 24 hours post-icus. Relative change in hemispheric volume is calculated as a percent of the difference between ipsilateral brain volume (Vi) and contralateral brain volume (Vc) relative to the contralateral brain volume (Percent Change in Hemispheric Brain Volume=((Vi−Vc)/Vc)×100%.
Neurological Outcome—In the same experiment as above, animals are scored for neurological outcome on a simple 5 point scale described in Manley, G. T. et al., Aquaporin-4 Deletion in Mice Reduces Brain Edema After Acute Water Intoxication and Ischemic Stroke, Nature Medicine, 6, 159-163 (2000).
Another series deals with AQP. The experiment in a line: AQP inhibition cell-based assay (Table 1). On the procedure:
as §1

Each structure is given as a SMILES string. Converted amounts (≈) assume the structure as drawn. Like-named read-outs stand apart in the source and are kept apart here.

Chain of purified AQP4b (P55087 23-323): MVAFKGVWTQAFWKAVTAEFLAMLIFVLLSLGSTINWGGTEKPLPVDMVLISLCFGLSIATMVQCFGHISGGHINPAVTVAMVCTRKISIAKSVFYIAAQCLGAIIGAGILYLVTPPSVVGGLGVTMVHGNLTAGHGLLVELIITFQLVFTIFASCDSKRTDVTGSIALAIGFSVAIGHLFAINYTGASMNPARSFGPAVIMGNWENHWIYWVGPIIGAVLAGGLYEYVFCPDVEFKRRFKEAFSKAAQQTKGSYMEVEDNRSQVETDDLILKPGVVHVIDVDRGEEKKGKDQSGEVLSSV
T3 sequence (P55064 whole entry): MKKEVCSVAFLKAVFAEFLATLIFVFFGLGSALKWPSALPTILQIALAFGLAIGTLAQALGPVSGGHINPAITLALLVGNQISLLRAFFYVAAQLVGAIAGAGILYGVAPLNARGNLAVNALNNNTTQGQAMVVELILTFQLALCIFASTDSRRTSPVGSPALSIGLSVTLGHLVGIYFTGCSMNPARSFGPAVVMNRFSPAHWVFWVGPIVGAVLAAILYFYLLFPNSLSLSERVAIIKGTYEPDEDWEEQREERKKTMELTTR

Consider `O=C(Nc1cc(C(F)(F)F)cc(C(F)(F)F)c1)c1cc(Cl)ccc1OP(=O)(O)O`, for which the “bioconversion to Compound 1 (in words)” value in series [1] (added to mouse plasma in vitro) is on record as “rapid bioconversion”. The “time sufficient to render the salt undetectable” value in series [1] (mouse plasma in vitro, 20° C.) was “Less than 5 minutes”. Besides, the “level of the salt in plasma samples of mice injected IP (in words)” value (IP injection) is “undetectable”. Also, the “bioavailability and conversion to Compound 1 (in words)” value (IP injection, Compound 1 detected in plasma) is “good bioavailability and near-complete conversion”.
In general, solubility refers to the dissolved amount per volume that the medium holds. In “Solubility in water”, `O=C(Nc1cc(C(F)(F)F)cc(C(F)(F)F)c1)c1cc(Cl)ccc1O` [Compound 1, N-(3,5-Bis-trifluoromethyl-phenyl)-5-chloro-2-hydroxy-benzamide] yielded a solubility of 3.8 µg/mL (≈ 9.9 µM). Besides, the “extent of CE during the period of observation (in words)” value in [2] (0.76 mg/kg) is “reduced”. In addition, the “expected efficacious plasma concentration” value (taken from the mouse water toxicity model) came out at 20 ng/mL.
Turning to `O=C(Nc1cc(Cl)cc(Cl)c1)c1cc(Cl)ccc1O` [Compound 3], the “inhibition of water permeability (in words)” value is reported as “inhibits” in the series on AQP4, “inhibits” against AQP2, “poorly inhibits” against AQP1 and “poorly inhibits” against AQP5.
In the case of `O=C(Nc1cc(C(F)(F)F)cc(C(F)(F)F)c1)c1cc(C(F)(F)F)ccc1O` [Compound 4, N-[3,5-bis(trifluoromethyl)phenyl]-2-hydroxy-5-(trifluoromethyl)benzamide], the results for the Kd on purified AQP4b (monomeric AQP4b) and on purified AQP4b (tetrameric AQP4b) were < 1 µM and ~100 µM, respectively. Also, the “binding to solubilized AQP4b (in words)” value on purified AQP4b (solubilized AQP4b) is “relatively weak binding”.
As for `O=C(Nc1cc(C(F)(F)F)cc(C(F)(F)F)c1)c1cc(Cl)ccc1OP(=O)(O)O` [Compound 5], the “improvement in overall survival at 24 h” value in series [3] was 29.4%. Moreover, the solubility in the series “Solubility in water” is 1000 µg/mL (≈ 2160 µM). In [4] (5 mg/kg i.p. every three hours), the “neurological progression (in words)” value was “did not progress into a state of severe paralysis or death”. For the same compound, the “relative change in ipsilateral brain volume” value in series [4] (5 mg/kg i.p. every three hours, 24 hours after MCAo, ±SEM, control 13.4%±1.9%) is listed as 4.2±1.7%. Besides, the “reduction in brain swelling after MCAo” value in [4] (5 mg/kg i.p. every three hours, versus control) amounted to 3.2 fold. Moreover, in [4] (5 point scale, P=0.025, control 2.77±0.66), the average neurological score is 0.88±0.31.
Regarding `O=C(Nc1ccccc1)c1ccccc1` [Phenylbenzamide, reference compound], the “AQP Inhibition Cell-Based Assay” value with AQP worked out at 4.5%. The “reduction in the rate of CE (in words)” value in series [2] (0.39 mg/kg) is given as “fails to show reduction”.
